Test results reported in ChEMBL document CHEMBL1136805, “Nitroaryl phosphoramides as novel prodrugs for E. coli nitroreductase activation in enzyme prodrug therapy” (J Med Chem, 2003).

Test system: SK-OV-3
Assay: Inhibitory activity against SKOV3 (human ovarian carcinoma) cell line with Escherichia coli nitroreductase combination after 18 hours drug exposure
Assay type: functional, cell-based
Details: SK-OV-3, 18 h

Row | Structure (SMILES) | IC50 [µM]
1 | O=[N+]([O-])c1ccc2c(c1)NP(=O)(N(CCCl)CCCl)OC2 (stereo not drawn) | 55
2 | O=[N+]([O-])c1cccc([C@H]2CCNP(=O)(N(CCCl)CCCl)O2)c1 (stereo partly drawn) | 4.7
3 | O=[N+]([O-])c1cccc([C@@H]2CCNP(=O)(N(CCCl)CCCl)O2)c1 (stereo partly drawn) | 5
4 | NP(=O)(OCc1ccc([N+](=O)[O-])cc1)N(CCCl)CCCl (stereo not drawn) | 1.2
5 | NC(=O)c1cc(N2CC2)c([N+](=O)[O-])cc1[N+](=O)[O-] [TRETAZICAR] | 4.7

Test system: not listed separately
Assay: Inhibitory activity against V79 (chinese hamster fibroblast) cell line without Escherichia coli nitroreductase combination after 72 hours drug exposure
Assay type: functional, cell-based, Cricetulus griseus
Details: not given

Row | Structure (SMILES) | IC50 [µM]
6 | O=[N+]([O-])c1ccc2c(c1)NP(=O)(N(CCCl)CCCl)OC2 (stereo not drawn) | > 100
7 | O=[N+]([O-])c1cccc([C@H]2CCNP(=O)(N(CCCl)CCCl)O2)c1 (stereo partly drawn) | 832
8 | O=[N+]([O-])c1cccc([C@@H]2CCNP(=O)(N(CCCl)CCCl)O2)c1 (stereo partly drawn) | 608
9 | NP(=O)(OCc1ccc([N+](=O)[O-])cc1)N(CCCl)CCCl (stereo not drawn) | 67
10 | NC(=O)c1cc(N2CC2)c([N+](=O)[O-])cc1[N+](=O)[O-] [TRETAZICAR] | 254

Test system: SK-OV-3
Assay: Inhibitory activity against SKOV3 (human ovarian carcinoma) cell line without Escherichia coli nitroreductase combination after 18 hours drug exposure
Assay type: functional, cell-based
Details: Homo sapiens, SK-OV-3, 18 h

Row | Structure (SMILES) | IC50 [µM]
11 | O=[N+]([O-])c1ccc2c(c1)NP(=O)(N(CCCl)CCCl)OC2 (stereo not drawn) | 550
12 | O=[N+]([O-])c1cccc([C@H]2CCNP(=O)(N(CCCl)CCCl)O2)c1 (stereo partly drawn) | 680
13 | O=[N+]([O-])c1cccc([C@@H]2CCNP(=O)(N(CCCl)CCCl)O2)c1 (stereo partly drawn) | > 1000
14 | NP(=O)(OCc1ccc([N+](=O)[O-])cc1)N(CCCl)CCCl (stereo not drawn) | > 10000
15 | NC(=O)c1cc(N2CC2)c([N+](=O)[O-])cc1[N+](=O)[O-] [TRETAZICAR] | > 1000

Same assay, conditions: sk-ov-3

Row | Structure (SMILES) | IC50 [µM]
16 | NC(=O)c1cc(N2CC2)c([N+](=O)[O-])cc1[N+](=O)[O-] [TRETAZICAR] | 625

Test system: not listed separately
Assay: Inhibitory activity against V79 (chinese hamster fibroblast) cell line with Escherichia coli nitroreductase combination after 1 hour drug exposure
Assay type: functional, cell-based, Cricetulus griseus
Details: not given

Row | Structure (SMILES) | IC50 [µM]
17 | O=[N+]([O-])c1cccc([C@H]2CCNP(=O)(N(CCCl)CCCl)O2)c1 (stereo partly drawn) | 0.34
18 | O=[N+]([O-])c1cccc([C@@H]2CCNP(=O)(N(CCCl)CCCl)O2)c1 (stereo partly drawn) | 0.17
19 | NP(=O)(OCc1ccc([N+](=O)[O-])cc1)N(CCCl)CCCl (stereo not drawn) | 0.01
20 | NC(=O)c1cc(N2CC2)c([N+](=O)[O-])cc1[N+](=O)[O-] [TRETAZICAR] | 0.31

Test system: not listed separately
Assay: Ratio of the activity in absence to that of presence of the Escherichia coli nitroreductase in SKOV3 (human ovarian carcinoma) cell line infected at lower infection rate of 10 pfu/cell
Assay type: functional
Details: not given

Row | Structure (SMILES) | Ratio
21 | NP(=O)(OCc1ccc([N+](=O)[O-])cc1)N(CCCl)CCCl (stereo not drawn) | >161
22 | NC(=O)c1cc(N2CC2)c([N+](=O)[O-])cc1[N+](=O)[O-] [TRETAZICAR] | 12

Test system: not listed separately
Assay: Ratio of the activity in absence to that of presence of Escherichia coli nitroreductase in SKOV3 (human ovarian carcinoma) cell line
Assay type: functional
Details: not given

Row | Structure (SMILES) | Ratio
23 | O=[N+]([O-])c1ccc2c(c1)NP(=O)(N(CCCl)CCCl)OC2 (stereo not drawn) | 10
24 | O=[N+]([O-])c1cccc([C@H]2CCNP(=O)(N(CCCl)CCCl)O2)c1 (stereo partly drawn) | 145
25 | O=[N+]([O-])c1cccc([C@@H]2CCNP(=O)(N(CCCl)CCCl)O2)c1 (stereo partly drawn) | >200
26 | NP(=O)(OCc1ccc([N+](=O)[O-])cc1)N(CCCl)CCCl (stereo not drawn) | >833
27 | NC(=O)c1cc(N2CC2)c([N+](=O)[O-])cc1[N+](=O)[O-] [TRETAZICAR] | >213

Test system: not listed separately
Assay: Ratio of Kcat to that of Km was determined
Assay type: ADME
Details: not given

Row | Structure (SMILES) | k cat/Km [M⁻¹ s⁻¹] | 1/2Kcat/Km [M⁻¹ s⁻¹]
28 | NP(=O)(OCc1ccc([N+](=O)[O-])cc1)N(CCCl)CCCl (stereo not drawn) | 71949 | –
29 | NC(=O)c1cc(N2CC2)c([N+](=O)[O-])cc1[N+](=O)[O-] [TRETAZICAR] | – | 3746

Test system: SK-OV-3
Assay: Inhibitory activity against SKOV3 (human ovarian carcinoma) cell line infected at lower infection rate of 10 pfu/cell with Escherichia coli nitroreductase combination after 18 hours drug exposure
Assay type: functional, cell-based
Details: SK-OV-3, 18 h

Row | Structure (SMILES) | IC50 [µM]
30 | NP(=O)(OCc1ccc([N+](=O)[O-])cc1)N(CCCl)CCCl (stereo not drawn) | 6.2
31 | NC(=O)c1cc(N2CC2)c([N+](=O)[O-])cc1[N+](=O)[O-] [TRETAZICAR] | 52

Test system: not listed separately
Assay: Inhibitory activity against V79 (chinese hamster fibroblast) cell line with Escherichia coli nitroreductase combination after 72 hours drug exposure
Assay type: functional, cell-based, Cricetulus griseus
Details: not given

Row | Structure (SMILES) | IC50 [µM]
32 | O=[N+]([O-])c1ccc2c(c1)NP(=O)(N(CCCl)CCCl)OC2 (stereo not drawn) | 3
33 | O=[N+]([O-])c1cccc([C@H]2CCNP(=O)(N(CCCl)CCCl)O2)c1 (stereo partly drawn) | 0.029
34 | O=[N+]([O-])c1cccc([C@@H]2CCNP(=O)(N(CCCl)CCCl)O2)c1 (stereo partly drawn) | 0.027
35 | NP(=O)(OCc1ccc([N+](=O)[O-])cc1)N(CCCl)CCCl (stereo not drawn) | 0.0004
36 | NC(=O)c1cc(N2CC2)c([N+](=O)[O-])cc1[N+](=O)[O-] [TRETAZICAR] | 0.036

Test system: not listed separately
Assay: Inhibitory activity against V79 (chinese hamster fibroblast) cell line without Escherichia coli nitroreductase combination after 1 hour drug exposure
Assay type: functional, cell-based, Cricetulus griseus
Details: not given

Row | Structure (SMILES) | IC50 [µM]
37 | O=[N+]([O-])c1cccc([C@H]2CCNP(=O)(N(CCCl)CCCl)O2)c1 (stereo partly drawn) | > 100
38 | O=[N+]([O-])c1cccc([C@@H]2CCNP(=O)(N(CCCl)CCCl)O2)c1 (stereo partly drawn) | > 100
39 | NP(=O)(OCc1ccc([N+](=O)[O-])cc1)N(CCCl)CCCl (stereo not drawn) | > 100
40 | NC(=O)c1cc(N2CC2)c([N+](=O)[O-])cc1[N+](=O)[O-] [TRETAZICAR] | > 100

Test system: not listed separately
Assay: Kcat was determined
Assay type: ADME
Details: not given

Row | Structure (SMILES) | k cat [s⁻¹]
41 | NP(=O)(OCc1ccc([N+](=O)[O-])cc1)N(CCCl)CCCl (stereo not drawn) | 14
42 | NC(=O)c1cc(N2CC2)c([N+](=O)[O-])cc1[N+](=O)[O-] [TRETAZICAR] | 6.6

Test system: not listed separately
Assay: Ratio of the activity in absence to that of presence of Escherichia coli nitroreductase V79 (chinese hamster fibroblast) cell line
Assay type: functional
Details: not given

Row | Structure (SMILES) | Ratio
43 | O=[N+]([O-])c1ccc2c(c1)NP(=O)(N(CCCl)CCCl)OC2 (stereo not drawn) | >33
